Values joined by “and” are separate entries in the source; they are usually repeats but may differ in a detail not shown here. Equal values may be shown once. Toxic doses and inconclusive results are not listed. Cut-off read from the data, not from the text of the source: active = T/C of 150% or more; inactive = T/C below 125%.
System: L1210 leukemia ip in BDF1 mice, survival T/C
Test: NCI In Vivo Anticancer Drug Screen. Data for tumor model L1210 Leukemia (intraperitoneal) in B6D2F1 (BDF1) mice
Settings: endpoint: mean survival time, higher = longer survival
Method in brief: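 Mice bearing the transplanted tumor received compound or vehicle. Survival of the treated group was divided by that of the vehicle-treated control group to give the ratio.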

[1] = dose: 100.0 mg/kg/injection, schedule: Q01DX001 (ip), vehicle: Klucel (hydroxypropylcellulose) (HPC)
[2] = dose: 200.0 mg/kg/injection, schedule: Q01DX001 (ip), vehicle: Klucel (hydroxypropylcellulose) (HPC)
[3] = dose: 100.0 mg/kg/injection, schedule: Q01DX009 (ip), vehicle: Klucel (hydroxypropylcellulose) (HPC)
[4] = dose: 100.0 mg/kg/injection, schedule: Q04DX003 (ip), vehicle: Klucel (hydroxypropylcellulose) (HPC)
[5] = dose: 200.0 mg/kg/injection, schedule: Q01DX009 (ip), vehicle: Klucel (hydroxypropylcellulose) (HPC)
[6] = dose: 200.0 mg/kg/injection, schedule: Q04DX003 (ip), vehicle: Klucel (hydroxypropylcellulose) (HPC)
[7] = dose: 400.0 mg/kg/injection, schedule: Q01DX009 (ip), vehicle: Klucel (hydroxypropylcellulose) (HPC)
[8] = dose: 400.0 mg/kg/injection, schedule: Q04DX003 (ip), vehicle: Klucel (hydroxypropylcellulose) (HPC)
[9] = dose: 100.0 mg/kg/injection, schedule: Q01DX001 (ip), vehicle: saline with Tween-80
[10] = dose: 200.0 mg/kg/injection, schedule: Q01DX001 (ip), vehicle: saline with Tween-80
[11] = dose: 400.0 mg/kg/injection, schedule: Q01DX001 (ip), vehicle: saline with Tween-80
[12] = dose: 100.0 mg/kg/injection, schedule: Q01DX001 (ip), vehicle: saline
[13] = dose: 200.0 mg/kg/injection, schedule: Q01DX001 (ip), vehicle: saline
[14] = dose: 400.0 mg/kg/injection, schedule: Q01DX001 (ip), vehicle: saline
[15] = dose: 100.0 mg/kg/injection, schedule: Q04DX002 (ip), vehicle: Klucel (hydroxypropylcellulose) (HPC)
[16] = dose: 200.0 mg/kg/injection, schedule: Q04DX002 (ip), vehicle: Klucel (hydroxypropylcellulose) (HPC)
[17] = dose: 400.0 mg/kg/injection, schedule: Q04DX002 (ip), vehicle: Klucel (hydroxypropylcellulose) (HPC)
[18] = dose: 100.0 mg/kg/injection, schedule: Q01DX009 (ip), vehicle: saline
[19] = dose: 200.0 mg/kg/injection, schedule: Q01DX009 (ip), vehicle: saline
[20] = dose: 400.0 mg/kg/injection, schedule: Q01DX001 (ip), vehicle: Klucel (hydroxypropylcellulose) (HPC)

Measured: T/C

O=C1c2ccccc2C(=O)N1CCCCCCCCCCCCCCN1C(=O)c2ccccc2C1=O
inactive: [1] 94 % of control | [2] 94 % of control

Clc1cc2c(cc1CO/N=C\c1ccc3c(c1)OCO3)OCO2
inactive: dose: 100.0 mg/kg/injection, schedule: Q04DX003 (ip), vehicle: saline sonified 90 % of control | dose: 200.0 mg/kg/injection, schedule: Q04DX003 (ip), vehicle: saline sonified 88 % of control

O=C(Cl)c1ccccc1S(=O)(=O)N(CCOc1ccccc1)c1ccccc1
inactive: [3] 97 % of control | [4] 96 % of control | [5] 98 % of control | [6] 91 % of control | [7] 97 % of control | [8] 86 % of control

c1ccc(Sc2ncnc3nc[nH]c23)nc1
inactive: dose: 267.0 mg/kg/injection, schedule: Q01DX001 (ip), vehicle: saline with Tween-80 110 % of control

CC(=O)OCCCC[N+](=O)[O-]
inactive: dose: 100.0 mg/kg/injection, schedule: Q01DX001 (ip), vehicle: carboxymethylcellulose (CMC) 98 % of control | dose: 200.0 mg/kg/injection, schedule: Q01DX001 (ip), vehicle: carboxymethylcellulose (CMC) 98 % of control | dose: 400.0 mg/kg/injection, schedule: Q01DX001 (ip), vehicle: carboxymethylcellulose (CMC) 98 % of control

O=C1C=CC(=O)N1c1ccc(Br)cc1Cl
inactive: dose: 0.78 mg/kg/injection, schedule: Q04DX003 (ip), vehicle: saline 91 % of control | dose: 1.0 mg/kg/injection, schedule: Q01DX009 (ip), vehicle: saline 101 % of control | dose: 1.56 mg/kg/injection, schedule: Q04DX003 (ip), vehicle: saline 93 % of control | dose: 2.0 mg/kg/injection, schedule: Q01DX009 (ip), vehicle: saline 110 % of control | dose: 3.13 mg/kg/injection, schedule: Q04DX003 (ip), vehicle: saline 106 % of control | dose: 4.0 mg/kg/injection, schedule: Q01DX009 (ip), vehicle: saline 89 % of control | dose: 25.0 mg/kg/injection, schedule: Q04DX003 (ip), vehicle: saline with Tween-80 100 % of control | [4] 93 % of control

CCCCNC(=O)CSc1cc(Cl)c(Cl)cc1Cl
inactive: [9] 91 % of control | [10] 91 % of control | [11] 95 % of control

Cc1nc(N)c2nc(-c3ccc(N(CCCl)CCCl)cc3)c(N)nc2n1
inactive: [12] 96 % of control | [13] 96 % of control | [14] 96 % of control

CCNC(=O)OCC1C2CCC(O2)C1COC(=O)NCC (centres undefined)
inactive: [15] 101 % of control | [16] 98 % of control | [17] 98 % of control

CCn1c(/C=N/NC(N)=S)cc2ccccc21
inactive: dose: 50.0 mg/kg/injection, schedule: Q01DX001 (ip), vehicle: other 104 % of control | dose: 100.0 mg/kg/injection, schedule: Q01DX001 (ip), vehicle: other 109 % of control | dose: 200.0 mg/kg/injection, schedule: Q01DX001 (ip), vehicle: other 104 % of control | dose: 400.0 mg/kg/injection, schedule: Q01DX001 (ip), vehicle: other 104 % of control

CC12CCC(=O)C=C1CCC1C2CCC2(C)C(OC(=O)c3ccc(N)cc3)CCC12 (centres undefined)
inactive: dose: 100.0 mg/kg/injection, schedule: Q04DX002 (ip), vehicle: saline with Tween-80 94 % of control | dose: 200.0 mg/kg/injection, schedule: Q04DX002 (ip), vehicle: saline with Tween-80 91 % of control | dose: 400.0 mg/kg/injection, schedule: Q04DX002 (ip), vehicle: saline with Tween-80 94 % of control

S=C(Nc1ccccc1)N1CCN2CCCCC2C1 (centres undefined)
inactive: dose: 75.0 mg/kg/injection, schedule: Q01DX001 (ip), vehicle: acetone 100 % of control | dose: 150.0 mg/kg/injection, schedule: Q01DX001 (ip), vehicle: acetone 107 % of control | dose: 300.0 mg/kg/injection, schedule: Q01DX001 (ip), vehicle: acetone 92 % of control

O/N=C(\Cl)c1ccc(/C(Cl)=N\O)cc1
inactive: dose: 5.0 mg/kg/injection, schedule: Q01DX001 (ip), vehicle: saline 111 % of control | dose: 10.0 mg/kg/injection, schedule: Q01DX001 (ip), vehicle: saline 105 % of control | dose: 20.0 mg/kg/injection, schedule: Q01DX001 (ip), vehicle: saline 100 % of control

C=C(CCCC)c1ccccc1
inactive: dose: 50.0 mg/kg/injection, schedule: Q01DX009 (ip), vehicle: saline with Tween-80 102 % of control | dose: 100.0 mg/kg/injection, schedule: Q01DX009 (ip), vehicle: saline with Tween-80 91 % of control | dose: 200.0 mg/kg/injection, schedule: Q01DX009 (ip), vehicle: saline with Tween-80 94 % of control

C=C1C(=O)OC2C1CCC(C)C1C=CC(=O)C12C (centres undefined)
inactive: dose: 50.0 mg/kg/injection, schedule: Q01DX009 (ip), vehicle: saline 98 % of control | [18] 96 % of control | [19] 98 % of control

CC(C)=C(Br)c1c(C)cc(C)c(Nc2ccc([N+](=O)[O-])cc2)c1C
inactive: dose: 100.0 mg/kg/injection, schedule: Q04DX003 (ip), vehicle: saline 94 % of control | dose: 200.0 mg/kg/injection, schedule: Q04DX003 (ip), vehicle: saline 91 % of control | dose: 400.0 mg/kg/injection, schedule: Q04DX003 (ip), vehicle: saline 91 % of control

CCCCC(CC)COP(OCC(CC)CCCC)OCC(CC)CCCC (centres undefined)
inactive: dose: 100.0 mg/kg/injection, schedule: Q04DX003 (ip), vehicle: saline with Tween-80 96 % of control | dose: 200.0 mg/kg/injection, schedule: Q04DX003 (ip), vehicle: saline with Tween-80 100 % of control | dose: 400.0 mg/kg/injection, schedule: Q04DX003 (ip), vehicle: saline with Tween-80 96 % of control

NC(Cc1cccnc1)C(=O)O (centres undefined)
inactive: [9] 109 % of control | [10] 103 % of control | [11] 98 % of control

CN(C)C(=O)Nc1ccc([N+](=O)[O-])cc1[N+](=O)[O-]
inactive: [9] 96 % of control | [10] 89 % of control | [11] 94 % of control | dose: 800.0 mg/kg/injection, schedule: Q04DX002 (ip), vehicle: saline with Tween-80 104 % of control and 107 % of control

O=C(Nc1ccccc1C(=O)N/N=C/c1c(O)ccc2ccccc12)c1ccccc1Cl
inactive: [1] 95 % of control | [3] 99 % of control and 103 % of control | [15] 95 % of control and 104 % of control | [4] 100 % of control | [2] 93 % of control | [5] 101 % of control and 102 % of control | [16] 103 % of control | [6] 96 % of control | [20] 95 % of control | [7] 94 % of control and 95 % of control | [17] 93 % of control and 92 % of control | [8] 96 % of control

CCOP(=O)(OCC)OCCSCC
inactive: dose: 75.0 mg/kg/injection, schedule: Q01DX001 (ip), vehicle: saline 103 % of control | dose: 150.0 mg/kg/injection, schedule: Q01DX001 (ip), vehicle: saline 102 % of control

CN(C)P1(=O)NCCCO1 (centres undefined)
inactive: [12] 100 % of control | [13] 110 % of control | [14] 109 % of control

Nc1ccc2c3c(cccc13)C(=O)OC2=O
inactive: [1] 91 % of control | [18] 92 % of control | [2] 94 % of control | [19] 95 % of control | [20] 94 % of control | dose: 400.0 mg/kg/injection, schedule: Q01DX009 (ip), vehicle: saline 90 % of control

NCC1C2CC3CC(C2)CC1C3 (centres undefined)
inactive: dose: 12.5 mg/kg/injection, schedule: Q01DX001 (ip), vehicle: saline 106 % of control | dose: 25.0 mg/kg/injection, schedule: Q01DX001 (ip), vehicle: saline 97 % of control | dose: 50.0 mg/kg/injection, schedule: Q01DX001 (ip), vehicle: saline 93 % of control | [15] 98 % of control | [16] 96 % of control

CCC(CC)NCC(C)OC(=O)c1ccc([N+](=O)[O-])cc1 (centres undefined)
inactive: dose: 75.0 mg/kg/injection, schedule: Q01DX001 (ip), vehicle: carboxymethylcellulose (CMC) 96 % of control | dose: 150.0 mg/kg/injection, schedule: Q01DX001 (ip), vehicle: carboxymethylcellulose (CMC) 105 % of control | dose: 300.0 mg/kg/injection, schedule: Q01DX001 (ip), vehicle: carboxymethylcellulose (CMC) 97 % of control
